Measured values reported in patent US11759444B2, “Methods for cancer and immunotherapy using prodrugs of glutamine analogs” (The Johns Hopkins University, priority 2015, dated 2023).
Entries after “also recorded” stand apart in the source; their conditions may differ.

Key:
EO771 cells = assay: EO771 breast cancer model; format: in vivo, C57BL/6 mice
Method: Mouse: C57BL/6 (both male and female mice, 6-8 weeks of age) were purchased from Jackson Laboratories. The studies were conducted under a protocol approved by the Johns Hopkins Animal Care and Use Committee.
Cell Line: EO771 breast cancer cell lines were purchased from CH3 BioSystems.
Treatment with immunotherapy alone or combined immunotherapy with compound 25: On days 9, 12, and 15, mice were injected with or without 100 μg anti-PD1 alone or 100 μg anti-PD1 in combination with 100 μg anti-CTLA4, followed by treatment with or without compound 25. Each individual mouse tumor growth and survival curves were recorded.

4T1 tumor cells = assay: 4T1 breast cancer model; settings: for 4T1 tumor growth and survival, monotherapy (words): 1 mg/kg daily
3LL cells = assay: 3LL tumor model; format: in vivo, C57BL/6J mice
Text: 5×10^6 3 LL cells were implanted subcutaneously into the right flank in C57BL/6J male mice.

MC38 cells [1] = assay: MC38 colon cancer tumor model; format: in vivo, C57BL/6 mice; settings: growth rate recovered after several days
MC38 cells [2] = assay: MC38 colon cancer tumor model; format: in vivo, C57BL/6 mice; settings: for MC38 tumor response, monotherapy (words): 1 mg/kg followed by 0.3 mg/kg, 14 days, wild type mice; for rejection of tumor re-challenge by mice cured with monotherapy: MC38 rechallenge on opposite flank; for MC38 response in combination with anti-PD1: combination with anti-PD-1
Method: (§1) Tumor growth and survival experiments: Tumor injections were administered in the right flank. For the MC38 and MC38OVA models, C57BL/6 WT mice were injected with 5×10^5 MC38 or MC38OVA cells (s.c.) cultured in DMEM-based media. For the CT26 model, BALB/c mice were injected with 5×10^5 CT26 cells (s.c.) cultured in RPMI-based media. Compound 25 was dissolved in 2.5% ethanol in PBS (v/v) which was administered for all vehicle-treated control experiments. For MC38 and MC38OVA experiments, mice were treated with Compound 25 or vehicle by daily gavage with 1 mg/kg/day in 100 uL for days 10-14 and with 0.3 mg/kg/day for day 15-24. For CT26 experiments, mice were treated with compound 25 or vehicle by daily gavage with 1 mg/kg/day in 100 uL for days 7-11 and with 0.3 mg/kg/day for day 12-21.

[3] = microsomes
[4] = microsomes; remark: listed apart in the source
B16-OVA melanoma cells = assay: B16-OVA melanoma model with adoptive cellular therapy; format: in vivo, C57BL/6 mice; settings: 1 mg/kg/day days 7-9 before transfer on day 10
Method: Adoptive Cellular Therapy: OVA-expressing B16 melanoma model, C57BL/6 WT mice received a s.c. injection of 2×10^5 B16-OVA melanoma cells cultured under OVA selection media containing 400 μg/ml G418 (Life technologies). Mice were treated with compound 25 or vehicle by daily gavage with 1 mg/kg/day in 100 uL for days 7-9 post tumor inoculation. Ten days after tumor injection, mice received an adoptive transfer of 1.5×10^6 activated OT1 cells, which had been stimulated in vitro with […] peptide for 48 h, expanded in IL-2 (1 ng/mL) for 24 h and isolated with Ficol gradient centrifugation. Mice were randomized based on tumor size before transfer of activated OT1 cells for adoptive transfer experiments. Tumor burden was assessed every 2-4 days by measuring length and width of tumor. Tumor volume was calculated using the formula V=(L×W×W)/2, where V is tumor volume, W is tumor width, and L is tumor length. Mice were sacrificed when tumor reached 2 cm in any dimension, became ulcerate or necrotic, or caused functional deficits.

B16 melanoma = B16 melanoma mouse model; format: in vivo; settings: monotherapy
EL4 lymphoma = assay: EL4 mouse lymphoma model; format: in vivo; settings: monotherapy
CT26 cells = assay: CT26 colon cancer tumor model; format: in vivo, BALB/c mice; settings: for CT26 anti-tumor response in combination with anti-PD1: combination with anti-PD-1
Method: as §1

[5] = 1 mg/kg daily day 7 to 16, tumors evaluated day 21

Compound: CCOC(=O)[C@H](CCC(=O)C=[N+]=[N-])NC(=O)[C@@H](N)CC(C)C [Compound 25]
- EO771 tumor growth and survival, single agent (EO771 cells; agent alone): delayed tumor growth and increased survival
- EO771 tumor growth and survival, combination with anti-PD-1 (EO771 cells; compound 25 + anti-PD-1): surprising increase in inhibition of tumor growth and survival
- 4T1 tumor growth and survival, monotherapy (words) (4T1 tumor cells): robust response and improved overall survival
- CD11b+ cells and G-MDSCs in circulating blood (4T1 tumor cells; 1 mg/kg daily day 7 to 16, flow cytometry days 6, 9, 17): reduced CD11b+ cells and G-MDSCs
- TNF alpha in tumor associated macrophages (4T1 tumor cells; [5]): increased TNF alpha
- fibrocytes in tumor (4T1 tumor cells; [5]): reduced fibrocytes
- 4T1-Luc tumor luminescence, comparison with anti-PD1 (4T1 tumor cells; 1 mg/kg daily from day 7, IVIS imaging day 13): inhibited mammary carcinoma cell proliferation better than anti-PD1
- 4T1 tumor growth and survival, monotherapy (words) (4T1 tumor cells; listed as compound 25): inhibited the growth of mammary carcinoma tumor cells; also recorded: modest decrease in tumor growth
- spontaneous lung metastasis (4T1 tumor cells; 1 mg/kg from day 7, then 0.3 mg/kg, lungs harvested day 30): significantly reduces lung metastasis
- 4T1 breast cancer model, comparison with CB-839 (4T1 tumor cells; 25 daily days 7-22 (1.0 mg/kg/d) vs CB-839 BID days 1-29): superior to CB-839
- 4T1 tumor growth and survival, combination with anti-PD1 and anti-CTLA4 (4T1 tumor cells; compound 25 + anti-PD1 + anti-CTLA-4): substantial decrease of tumor growth and increase in survival time
- 3LL tumor growth (3LL cells; 1 mg/kg from day 7, then 0.3 mg/kg): reduced tumor growth
- ratio of CD8 cells to MDSCs+ and TANs, blood and TIL (3LL cells; 3LL tumor-bearing mice): increased ratio of CD8 cells to MDSCs+ and TANs
- MC38 tumor growth in RAG2−/− mice (MC38 cells [1]): some initial effect on tumor growth
- MC38 tumor response, monotherapy (words) (MC38 cells [2]): complete and durable response
- MC38 tumor response, monotherapy (words) (MC38 cells [2]; listed as compound 25): marked decrease in tumor growth; also recorded: durable cures; also recorded: significant control of the tumor including complete regression in a proportion of the mice
- rejection of tumor re-challenge by mice cured with monotherapy (MC38 cells [2]): immunologically reject tumors upon re-challenge
- rejection of tumor re-challenge by mice cured with monotherapy (MC38 cells [2]; listed as compound 25): More than three-quarters
- MC38 response in combination with anti-PD1 (MC38 cells [2]): conditions tumors to be eliminated by anti-PD1 therapy; also recorded: rescues anti-PD1 failures
- MC38 response in combination with anti-PD1 (MC38 cells [2]; listed as compound 25): unexpected increase in both tumor regression and complete responses
- liver microsomal stability, human [3]: moderate-high stability
- liver microsomal stability, pig [4]: moderate-high stability
- tumor control and survival with adoptive transfer of activated OT1 T cells (B16-OVA melanoma cells): unexpected improvement in tumor control and survival
- melanoma tumor growth (B16 melanoma): marked decrease in tumor growth
- lymphoma tumor growth (EL4 lymphoma): marked decrease in tumor growth
- CT26 tumor model, comparison with CB-839 (CT26 cells; 25 short daily course vs CB-839 continuous BID dosing): superior to CB-839
- CT26 anti-tumor response in combination with anti-PD1 (CT26 cells): unexpectedly enhances the response to anti-PD1
- CT26 anti-tumor response in combination with anti-PD1 (CT26 cells; listed as compound 25): significant anti-tumor responses
- CT26 tumor response and survival, monotherapy (words) (CT26 cells): robust response and improved overall survival
- CT26 tumor response and survival, monotherapy (words) (CT26 cells; listed as compound 25): marked decrease in tumor growth
